From PubChem BioAssay AID2060901 (Molecular Pharmacology Branch, DTP, NCI, 2025)
Each block holds one compound with its values, some of them ahead of it.

Test system: 422866-222-R5-J1-PDC complex spheroids viability
Experiment: Anticancer human tumor 422866-222-R5-J1-PDC patient-derived pancreatic adenocarcinoma cell line growth inhibition [RAS]
Settings: for IC50: curve of first compound; for viability, T/C: stronger effect = lower value
Description: RAS pathway inhibitors in Combinations in Complex Spheroids
A high-throughput screen of multi-cell type tumor spheroids was designed to identify active combinations of RAS pathway inhibitors and targeted small molecules. Complex spheroids include a stromal component modeled by human endothelial cells (HUVEC) and fibroblasts modeled by human mesenchymal stem cells (MSCs). The concentration ranges selected for each drug and investigational agent were based upon clinically achievable concentrations if the clinical Cmax of the agent was known.
Compounds. The drugs and investigational agents: abemaciclib (NSC768073), cobimetinib (NSC768068), divarasib (GDC6063, NSC841802), docetaxel (NSC628503), GDC-1971 (RLY-1971, NSC841576), gemcitabine (NSC613327), inavolisib (NSC800729), ipatasertib (NSC767898), KB-0742 (NSC834161), MRTX-1133 (NSC836407), osimertinib (NSC779217), RMC-4630 (NSC839698), RMC-6236 (NSC851965), RMC-6291 (NSC852671), Ro-3306 (NSC812927), sapanisertib (NSC764658), SN-38 (NSC673596), staurosporine (NSC755774), SY5609 (NSC837396), and tovorafenib (DAY101, NSC766906), were obtained from the National Cancer Institute (NCI) Developmental Therapeutics Program Chemical Repository. The FDA-approved anticancer drug set is available from the NCI Developmental Therapeutics Program. […] The stock solutions were prepared in dimethyl sulfoxide (DMSO, Sigma-Aldrich, St. Louis, MO, cat. D2650) at 800-fold the tested concentration and stored at -70 degrees C prior to their use. All drugs and investigational agents were tested over a range starting from a high concentration at or near the clinical Cmax and decreasing in half-log increments. If the clinical Cmax for an agent had not been determined, the highest concentration tested was 10 microM.
Cell Culture. All cells were maintained in an incubator at 37 degrees C and 5% CO2 with 95% humidity. The PDC lines were cultured according to standard operating procedures established by the NCI PDMR. All PDCs were thawed and cultured in Matrigel-coated flasks prepared with a working solution of 1X Ham's F-12 nutrient mix, without supplementation (Invitrogen, Waltham, MA, cat. 11765054), 100 U/mL penicillin-streptomycin (Invitrogen, cat. 15140122), and 2.5% Matrigel (Corning Inc., Corning, NY, cat. 354248) for the first three passages. The 362531-283-R-J2-PDC and 782815-120-R-J1-PDC lines were cultured in 6C/Colon 1B media, which includes advanced DMEM/F-12 (Thermo Fisher Scientific, cat. 12634028), 10 mM HEPES (Thermo Fisher Scientific, cat. 15630080), 1X GlutaMAX supplement (Thermo Fisher Scientific, cat. 35050061), 0.1 mg/mL primocin (InvivoGen, San Diego, CA, cat. ant-pm-2), 10% defined fetal bovine serum, heat inactivated (HyClone Laboratories Inc., Logan, UT, cat. SH30070.03HI), 50% L-WRN conditioned media (ATCC, cat. CRL-3276), 1.25 mM N-Acetyl-L-cysteine (Sigma-Aldrich, cat. A9165), 10 mM nicotinamide (Sigma-Aldrich, cat. N0636), 1X B-27 supplement (Thermo Fisher Scientific, cat. 17504044), 1X N-2 supplement (Thermo Fisher Scientific, cat. 17502048), 50 ng/mL human EGF (Thermo Fisher Scientific, cat. PHG0311), and 10 microM Y-27632 dihydrochloride (Tocris Bioscience, cat. 1254). The K12877-001-R-J1-PDC line was cultured in 6I media, which includes all 6C/Colon 1B media plus 10 ng/mL human FGF-10 (PeproTech, cat. 100-26), 1 ng/mL human FGF-2 (PeproTech, cat. 100-18B), 1 µM prostaglandin E2 (Tocris Bioscience, cat. 2296), […] hydrocortisone (Sigma-Aldrich, cat. H4001), and […] bovine insulin (Sigma-Aldrich, cat. I6634). The K86415-001-R-J1-PDC line was cultured in 6D media, which includes all 6C/Colon 1B media components minus the L-WRN conditioned media. The 485176-168-R4-J1-PDC was cultured in PANC media, which includes all 6C/Colon 1B media plus 100 ng/mL human FGF-10 (PeproTech, cat. 100-26), 500 nM SB-431542 (Selleckchem, cat. S1067), and 10 nM gastrin (Tocris Bioscience, cat. 3006). […]

[1] = second compound 0.0316 µM, first compound 0.0316 µM
[2] = second compound 0.0316 µM, first compound 0.1 µM
[3] = second compound 0.0316 µM, first compound 0.316 µM
[4] = second compound 0.0316 µM, first compound 1 µM
[5] = second compound 0.0316 µM, first compound 3.16 µM
[6] = second compound 0.0316 µM, first compound 10 µM
[7] = second compound 0.1 µM, first compound 0.0316 µM
[8] = second compound 0.1 µM, first compound 0.1 µM
[9] = second compound 0.1 µM, first compound 0.316 µM
[10] = second compound 0.1 µM, first compound 1 µM
[11] = second compound 0.1 µM, first compound 3.16 µM
[12] = second compound 0.1 µM, first compound 10 µM
[13] = second compound 0.316 µM, first compound 0.0316 µM
[14] = second compound 0.316 µM, first compound 0.1 µM
[15] = second compound 0.316 µM, first compound 0.316 µM
[16] = second compound 0.316 µM, first compound 1 µM
[17] = second compound 0.316 µM, first compound 3.16 µM
[18] = second compound 0.316 µM, first compound 10 µM
[19] = second compound 1 µM, first compound 0.0316 µM
[20] = second compound 1 µM, first compound 0.1 µM
[21] = second compound 1 µM, first compound 0.316 µM
[22] = second compound 1 µM, first compound 1 µM
[23] = second compound 1 µM, first compound 3.16 µM
[24] = second compound 1 µM, first compound 10 µM
[25] = second compound 3.16 µM, first compound 0.0316 µM
[26] = second compound 3.16 µM, first compound 0.1 µM
[27] = second compound 3.16 µM, first compound 0.316 µM
[28] = second compound 3.16 µM, first compound 1 µM
[29] = second compound 3.16 µM, first compound 3.16 µM
[30] = second compound 3.16 µM, first compound 10 µM
[31] = second compound 10 µM, first compound 0.0316 µM
[32] = second compound 10 µM, first compound 0.1 µM
[33] = second compound 10 µM, first compound 0.316 µM
[34] = second compound 10 µM, first compound 1 µM
[35] = second compound 10 µM, first compound 3.16 µM
[36] = second compound 10 µM, first compound 10 µM
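For viability, T/C in this document: 100% = DMSO vehicle control viability.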

IC50 (second compound 0.0316 µM): > 10000 nM
IC50 (second compound 0.1 µM): > 10000 nM
IC50 (second compound 0.316 µM): > 10000 nM
IC50 (second compound 1 µM): < 31.6 nM
IC50 (second compound 3.16 µM): < 31.6 nM
IC50 (second compound 10 µM): < 31.6 nM
SMILES: CC(C)NCC(C(=O)N1CCN(c2ncnc3c2C(C)CC3O)CC1)c1ccc(Cl)cc1 (stereo unspecified) + C#Cc1c(F)ccc2cc(O)cc(-c3ncc4c(N5CC6CCC(C5)N6)nc(OCC56CCCN5CC(F)C6)nc4c3F)c12
viability, T/C [1]: 87.4%
viability, T/C [2]: 79%
viability, T/C [3]: 88%
viability, T/C [4]: 100%
viability, T/C [5]: 103%
viability, T/C [6]: 121%
viability, T/C [7]: 86.9%
viability, T/C [8]: 64.4%
viability, T/C [9]: 78.3%
viability, T/C [10]: 74.7%
viability, T/C [11]: 94.2%
viability, T/C [12]: 109%
viability, T/C [13]: 60.3%
viability, T/C [14]: 46.1%
viability, T/C [15]: 58.5%
viability, T/C [16]: 69.9%
viability, T/C [17]: 81.8%
viability, T/C [18]: 85.2%
viability, T/C [19]: 39.9%
viability, T/C [20]: 35.3%
viability, T/C [21]: 38.9%
viability, T/C [22]: 48.6%
viability, T/C [23]: 66.5%
viability, T/C [24]: 58.9%
viability, T/C [25]: 25.6%
viability, T/C [26]: 24.3%
viability, T/C [27]: 19.6%
viability, T/C [28]: 29.4%
viability, T/C [29]: 38.4%
viability, T/C [30]: 40.9%
viability, T/C [31]: 17.3%
viability, T/C [32]: 19%
viability, T/C [33]: 14.6%
viability, T/C [34]: 12%
viability, T/C [35]: 18.8%
viability, T/C [36]: 18.8%

IC50 (second compound 0.0316 µM): 93.5 nM
IC50 (second compound 0.1 µM): 81.5 nM
IC50 (second compound 0.316 µM): 33.4 nM
IC50 (second compound 1 µM): < 31.6 nM
IC50 (second compound 3.16 µM): < 31.6 nM
IC50 (second compound 10 µM): < 31.6 nM
SMILES: CC(Nc1ccc2c(c1)OCCn1cc(N3C(=O)OCC3C(F)F)nc1-2)C(N)=O (stereo unspecified) + C#Cc1c(F)ccc2cc(O)cc(-c3ncc4c(N5CC6CCC(C5)N6)nc(OCC56CCCN5CC(F)C6)nc4c3F)c12
viability, T/C [1]: 77%
viability, T/C [2]: 46.7%
viability, T/C [3]: 33.1%
viability, T/C [4]: 37.9%
viability, T/C [5]: 26.1%
viability, T/C [6]: 22.2%
viability, T/C [7]: 73.3%
viability, T/C [8]: 44.8%
viability, T/C [9]: 30.9%
viability, T/C [10]: 24.7%
viability, T/C [11]: 23%
viability, T/C [12]: 19.9%
viability, T/C [13]: 50.6%
viability, T/C [14]: 38.6%
viability, T/C [15]: 29.8%
viability, T/C [16]: 21.6%
viability, T/C [17]: 19%
viability, T/C [18]: 18.7%
viability, T/C [19]: 37.3%
viability, T/C [20]: 26.5%
viability, T/C [21]: 22.5%
viability, T/C [22]: 14.5%
viability, T/C [23]: 13.6%
viability, T/C [24]: 12.7%
viability, T/C [25]: 22.2%
viability, T/C [26]: 19.2%
viability, T/C [27]: 13%
viability, T/C [28]: 10.5%
viability, T/C [29]: 9.41%
viability, T/C [30]: 9.38%
viability, T/C [31]: 13.7%
viability, T/C [32]: 11.8%
viability, T/C [33]: 8.74%
viability, T/C [34]: 6.04%
viability, T/C [35]: 7.1%
viability, T/C [36]: 7.04%

IC50 (second compound 0.0316 µM): 45.2 nM
IC50 (second compound 0.1 µM): 274 nM
IC50 (second compound 0.316 µM): 19.8 nM
IC50 (second compound 1 µM): 3.62 nM
IC50 (second compound 3.16 µM): < 3.16 nM
IC50 (second compound 10 µM): < 3.16 nM
SMILES: O=C(c1ccc(F)c(F)c1Nc1ccc(I)cc1F)N1CC(O)([C@@H]2CCCCN2)C1 + C#Cc1c(F)ccc2cc(O)cc(-c3ncc4c(N5CC6CCC(C5)N6)nc(OCC56CCCN5CC(F)C6)nc4c3F)c12
viability, T/C (second compound 0.0316 µM, first compound 0.00316 µM): 70.1%
viability, T/C (second compound 0.0316 µM, first compound 0.01 µM): 82.2%
viability, T/C [1]: 52.4%
viability, T/C [2]: 47.6%
viability, T/C [3]: 41.5%
viability, T/C [4]: 44.6%
viability, T/C (second compound 0.1 µM, first compound 0.00316 µM): 81.9%
viability, T/C (second compound 0.1 µM, first compound 0.01 µM): 71.6%
viability, T/C [7]: 65.8%
viability, T/C [8]: 53.6%
viability, T/C [9]: 49.1%
viability, T/C [10]: 46.6%
viability, T/C (second compound 0.316 µM, first compound 0.00316 µM): 75.4%
viability, T/C (second compound 0.316 µM, first compound 0.01 µM): 53.2%
viability, T/C [13]: 46.7%
viability, T/C [14]: 43.2%
viability, T/C [15]: 34.9%
viability, T/C [16]: 33.3%
viability, T/C (second compound 1 µM, first compound 0.00316 µM): 50%
viability, T/C (second compound 1 µM, first compound 0.01 µM): 45.3%
viability, T/C [19]: 31.3%
viability, T/C [20]: 32.1%
viability, T/C [21]: 26.9%
viability, T/C [22]: 26.4%
viability, T/C (second compound 3.16 µM, first compound 0.00316 µM): 38.2%
viability, T/C (second compound 3.16 µM, first compound 0.01 µM): 26.1%
viability, T/C [25]: 24.6%
viability, T/C [26]: 24%
viability, T/C [27]: 19.9%
viability, T/C [28]: 15.7%
viability, T/C (second compound 10 µM, first compound 0.00316 µM): 19.8%
viability, T/C (second compound 10 µM, first compound 0.01 µM): 17.8%
viability, T/C [31]: 17.9%
viability, T/C [32]: 14%
viability, T/C [33]: 12.2%
viability, T/C [34]: 14.2%
